Reference: patent US4963565A, “In vivo treatment of mycobacterial infections with 6-cyclo octylamino-5,8-quinoline quinone” (priority 1986, dated 1990)

How the values were obtained:
blood clotting = experiment: Effect on blood clotting; type: in vivo; conditions: oral, intraperitoneal and intramuscular, varying amounts, FIG. 8
Method: Due to its relationship to Vitamin K, there was some concern as to the effect CQQ would have on blood clotting. Varying amounts of CQQ were administered orally, intraperitoneally, and intramuscularly.

macrophages = experiment: Cytotoxicity to macrophages (Table 3 footnote); type: cell-based, human; conditions: Sample I; 200 NG/ML (cell printed *)
Excerpt: Blood from a healthy volunteer was drawn and monocytes were removed and cultured to the macrophage stage. This required about 7 days. The macrophages were then exposed to M. leprae bacilli obtained from biopsy specimens of leprosy patients. One sample was exposed to CQQ, while other samples were exposed to DDS (diaminodiphenyl sulphone), the standard antileprosy drug, or rifampin, at various concentrations. Macrophages were exposed to radiolabelled tritium (^3 H) labeled thymidine, and its uptake was measured using a liquid scintillation counter. A control model of M. leprae exposed macrophages, which was not treated was used as well. The uptake of thymidine is a measure of antimycobacterial activity.

[1] = tested on: Mycobacterium intracellulare strain 571-8; experiment: In vivo chemotherapeutic activity against M. intracellulare, acute model in Beige mice (Example 1); set-up: species or system M. intracellulare (host: Beige mice, C57Bl/6/bg/bg); conditions: FIG. 1
M. tuberculosis H37 Rv = experiment: In vivo activity against M. tuberculosis infections in C57Bl/6 mice (Example VII); set-up: species or system M. tuberculosis (host: C57Bl/6 mice)
Method: Animal studies were performed using the mouse model. Mice are accepted as excellent experimental models for human mycobacterial diseases. While earlier literature (see review by Youmans etc.), have established C57Bl/6 mice models for in vivo studies with M. tuberculosis, mouse models for experimental M. intracellulare infections were difficult until recently (see review by Gangadharam). The Beige mouse (C57Bl/6/bg/bg) model established by Gangadharam et al is now used for studies with M. intracellulare. In the in vivo studies described below, C57Bl/6 and Beige mice models are used for M. tuberculosis and M. intracellulare infections, respectively.
In chemotherapy studies, various concentrations of CQQ and ansamycin (LM 427), were used. Lung and spleen tissue samples from the animal models were used. "CFU" refers to the "colony forming units" observed when culturing these samples.
In all of the following experiments, spleens and lungs were removed aseptically from the subject animals, at different periods of challenge. The organs were ground and samples of the ground organs were plated in aliquots on 7H11 agar medium. If the bacteria were present, they would grow, forming CFUs. The plates were incubated at 37° C. (with 5% CO2 for M. tuberculosis), and read after three weeks incubation.
CFUs were counted by visual enumeration. If increased magnification was necessary, this was done using a plate microscope.
In this experiment C57Bl/6 mice were infected intravenously with M. tuberculosis H37 Rv strain and one group was treated daily orally with 10 mg/kg of CQQ and the others as untreated infected control.

M. tuberculosis = conditions: Gangadharam et al.; cited from earlier work
M. intracellulare 571-8 = experiment: In vivo effectiveness against chronic M. intracellulare infections in C57Bl/6 mice (Examples IV and V); set-up: species or system M. intracellulare (host: C57Bl/6 mice)
M. intracellulare [2] = experiment: In vivo chemotherapeutic activity against M. intracellulare in the Beige mouse model (Example II); set-up: species or system M. intracellulare (host: Beige mice); conditions: 10 mg/kg daily orally; 1, 2 and 4 weeks (P 0.05), FIG. 2
M. intracellulare [3] = experiment: In vitro activity against serovars of M. intracellulare, radiometric (Bactec) method; type: cell-based
Method: A study of the effect of CQQ on different serovars of M. intracellulare in vitro was performed using the radiometric (Bactec) method. Maximum growth index (GI) of 999 was determined (for control models) in terms of the number of days necessary for the culture to reach this stage. GI is measured using the special instrument which reads the amount of ^14 C labelled CO2 liberated from the strains using the ^14 C labelled substrates.

C57Bl/6 and Beige mice = experiment: Chronic toxicity in C57Bl/6 and Beige mice; type: in vivo; conditions: 40 mg/kg/day, and intraperitoneal doses over 30 mg/kg, more than 60 days
Method: Studies were performed to obtain toxicity data. […] Extrapolating, this corresponds to an LD50 of approximately 40 gr for a 70 kg subject. For chronic toxicity studies both C57Bl/6 and Beige mice were administered doses of 40 mg/kg/day, and intraperitoneal doses over 30 mg/kg for more than 60 days.

[4] = 8.0 mcg/ml, serovar 3, strain 7-17
[5] = 8.0 mcg/ml, serovar 3, strain 9-75
[6] = 8.0 mcg/ml, serovar 3, strain 12-1
[7] = 8.0 mcg/ml, serovar 3, strain 971-8
[8] = 8.0 mcg/ml, serovar 4, strain 5-13
[9] = 8.0 mcg/ml, serovar 4, strain 7-55
[10] = 8.0 mcg/ml, serovar 4, strain 8-50
[11] = 8.0 mcg/ml, serovar 4, strain TMC1463
[12] = 8.0 mcg/ml, serovar 9, strain 2-10
[13] = 8.0 mcg/ml, serovar 9, strain 6-38
[14] = 8.0 mcg/ml, serovar 9, strain 7-25
[15] = 8.0 mcg/ml, serovar 9, strain 1784-286
[16] = 8.0 mcg/ml, serovar 14, strain 7-3
[17] = 8.0 mcg/ml, serovar 14, strain 7-43
[18] = 8.0 mcg/ml, serovar 14, strain BOONE
[19] = 8.0 mcg/ml, serovar 14, strain P-39
[20] = 16.0 mcg/ml, serovar 3, strain 7-17
[21] = 16.0 mcg/ml, serovar 3, strain 9-75
[22] = 16.0 mcg/ml, serovar 3, strain 12-1
[23] = 16.0 mcg/ml, serovar 3, strain 971-8
[24] = 16.0 mcg/ml, serovar 4, strain 5-13
[25] = 16.0 mcg/ml, serovar 4, strain 7-55
[26] = 16.0 mcg/ml, serovar 4, strain 8-50
[27] = 16.0 mcg/ml, serovar 4, strain TMC1463
[28] = 16.0 mcg/ml, serovar 9, strain 2-10
[29] = 16.0 mcg/ml, serovar 9, strain 6-38
[30] = 16.0 mcg/ml, serovar 9, strain 7-25
[31] = 16.0 mcg/ml, serovar 9, strain 1784-286
[32] = 16.0 mcg/ml, serovar 14, strain 7-3
[33] = 16.0 mcg/ml, serovar 14, strain 7-43
[34] = 16.0 mcg/ml, serovar 14, strain BOONE
[35] = 16.0 mcg/ml, serovar 14, strain P-39

## O=C1C(NC2CCCCCCC2)=CC(=O)c2ncccc21 [CQQ, 6-cyclo octylamino-5,8-quinoline quinone]
Blood clotting
  Blood clotting time: little change in blood clotting time
macrophages
  Cytotoxic to macrophages: CYTOTOXIC TO MACROPHAGES
[1]; 10 mg/kg orally daily, each time point (P 0.05)
  Activity vs infected untreated control: considerable activity with a statistically significant difference
[1]; both 10 mg/kg orally daily
  Activity compared with ansamycin: better than that of ansamycin
M. tuberculosis H37 Rv; 10 mg/kg daily orally, end of 4 weeks
  Mean CFU counts from spleens and lungs vs untreated controls: considerable reduction
M. tuberculosis H37 Rv; 10 mg/kg daily orally, end of 4 weeks, control 6.42
  Mean colony forming unit (CFU) count, lung: 4.21 LOG CFU
M. tuberculosis H37 Rv; 10 mg/kg daily orally, end of 4 weeks, control 6.90
  Mean colony forming unit (CFU) count, spleen: 4.90 LOG CFU
M. tuberculosis H37 Rv; conclusion from Table 2
  Antituberculosis effectiveness: clearly an effective antituberculosis agent
M. tuberculosis
  In vitro effectiveness against M. tuberculosis: effective against M. intracellulare and M. tuberculosis in vitro
M. intracellulare 571-8; Example IV, 10 mg/kg (P 0.05)
  Duration of statistically significant difference vs control: up to 3 weeks
M. intracellulare 571-8; Example IV, 10 mg/kg, followed for 28 days, FIG. 5
  Reduction in CFU counts in spleen and lungs vs untreated control: considerable reduction in CFU counts both in spleen and lungs
M. intracellulare 571-8; Example V, FIG. 6
  In vivo antimycobacterial activity in the chronic infection: considerable in vivo antimycobacterial activity
M. intracellulare [2]
  Antimycobacterial activity, CFU counts from spleen and lungs vs controls: considerable antimycobactgerial activity with statistically significant differences
M. intracellulare [3]; [4]
  Day maximum GI achieved: 2 days
  Maximum GI: 16
M. intracellulare [3]; [5]
  Day maximum GI achieved: 2 days
  Maximum GI: 22
M. intracellulare [3]; [6]
  Day maximum GI achieved: 2 days
  Maximum GI: 4
M. intracellulare [3]; [7]
  Day maximum GI achieved: 3 days
  Maximum GI: 20
M. intracellulare [3]; [8]
  Day maximum GI achieved: 1 days
  Maximum GI: 14
M. intracellulare [3]; [9]
  Day maximum GI achieved: 2 days
  Maximum GI: 7
M. intracellulare [3]; [10]
  Day maximum GI achieved: 2 days
  Maximum GI: 15
M. intracellulare [3]; [11]
  Day maximum GI achieved: 1 days
  Maximum GI: 6
M. intracellulare [3]; [12]
  Day maximum GI achieved: 1 days
  Maximum GI: 14
M. intracellulare [3]; [13]
  Day maximum GI achieved: 1 days
  Maximum GI: 13
M. intracellulare [3]; [14]
  Day maximum GI achieved: 4 days
  Maximum GI: 33
M. intracellulare [3]; [15]
  Day maximum GI achieved: 1 days
  Maximum GI: 9
M. intracellulare [3]; [16]
  Day maximum GI achieved: 2 days
  Maximum GI: 5
M. intracellulare [3]; [17]
  Day maximum GI achieved: 1 days
  Maximum GI: 1
M. intracellulare [3]; [18]
  Day maximum GI achieved: 1 days
  Maximum GI: 13
M. intracellulare [3]; [19]
  Day maximum GI achieved: 1 days
  Maximum GI: 21
M. intracellulare [3]; 16.0 and 8.0 mcg/ml
  Inhibition of the strains: Complete inhibition
M. intracellulare [3]; [20]
  Day maximum GI achieved: 1 days
  Maximum GI: 5
M. intracellulare [3]; [21]
  Day maximum GI achieved: 1 days
  Maximum GI: 14
M. intracellulare [3]; [22]
  Day maximum GI achieved: 2 days
  Maximum GI: 6
M. intracellulare [3]; [23]
  Day maximum GI achieved: 1 days
  Maximum GI: 8
M. intracellulare [3]; [24]
  Day maximum GI achieved: 1 days
  Maximum GI: 4
M. intracellulare [3]; [25]
  Day maximum GI achieved: 2 days
  Maximum GI: 4
M. intracellulare [3]; [26]
  Day maximum GI achieved: 1 days
  Maximum GI: 6
M. intracellulare [3]; [27]
  Day maximum GI achieved: 1 days
  Maximum GI: 5
M. intracellulare [3]; [28]
  Day maximum GI achieved: 1 days
  Maximum GI: 12
M. intracellulare [3]; [29]
  Day maximum GI achieved: 1 days
  Maximum GI: 6
M. intracellulare [3]; [30]
  Day maximum GI achieved: 1 days
  Maximum GI: 7
M. intracellulare [3]; [31]
  Day maximum GI achieved: 1 days
  Maximum GI: 5
M. intracellulare [3]; [32]
  Day maximum GI achieved: 1 days
  Maximum GI: 4
M. intracellulare [3]; [33]
  Day maximum GI achieved: 1 days
  Maximum GI: 9
M. intracellulare [3]; [34]
  Day maximum GI achieved: 1 days
  Maximum GI: 7
M. intracellulare [3]; [35]
  Day maximum GI achieved: 1 days
  Maximum GI: 22
M. intracellulare [3]; both concentrations (16.0 and 8.0 mcg/ml)
  Effect on GI rates of all M. intracellulare strains: dramatic decrease in GI rates for all M. intracellulare strains
C57Bl/6 and Beige mice
  Visible toxic manifestation or death: No visible toxic manifestation or death
